From article PMC1885804, “Preferential inhibition of xanthine oxidase by 2-amino-6-hydroxy-8-mercaptopurine and 2-amino-6-purine thiol” (BMC Biochemistry, 2007)
Like-named read-outs stand apart in the source and are kept apart here. One block for each compound: values may come before it.

Columns and labels:
swiss male mice = experiment: Single dose acute toxicity study, fourteen days observation; assay type: in vivo
Experimental: In order to evaluate the toxicity of the preferential inhibitors of XOD, the single dose acute toxicity study was performed for both the preferential inhibitors on swiss male mice following a fourteen days observation period. The body weight of the animal ranged from 25–30 gm. […] Gross necropsy of each animal of all groups was conducted and organ weight was recorded after the termination of the study.

bovine XOD [1] = biological target: T1, bovine XOD (Bos taurus, UniProt P80457); experiment: IC50 determination, XOD-catalyzed hydroxylation (uric acid at 293 nm, 6TUA at 350 nm); assay type: biochemical; settings: for IC50: 2.8 U/ml bovine XOD, ± SEM
T1 construct: Bovine milk XOD was procured from Calbiochem (La Jolla, CA, USA); purchased Calbiochem (La Jolla, CA, USA); host or cells: bovine milk
T1 sequence (P80457 whole entry): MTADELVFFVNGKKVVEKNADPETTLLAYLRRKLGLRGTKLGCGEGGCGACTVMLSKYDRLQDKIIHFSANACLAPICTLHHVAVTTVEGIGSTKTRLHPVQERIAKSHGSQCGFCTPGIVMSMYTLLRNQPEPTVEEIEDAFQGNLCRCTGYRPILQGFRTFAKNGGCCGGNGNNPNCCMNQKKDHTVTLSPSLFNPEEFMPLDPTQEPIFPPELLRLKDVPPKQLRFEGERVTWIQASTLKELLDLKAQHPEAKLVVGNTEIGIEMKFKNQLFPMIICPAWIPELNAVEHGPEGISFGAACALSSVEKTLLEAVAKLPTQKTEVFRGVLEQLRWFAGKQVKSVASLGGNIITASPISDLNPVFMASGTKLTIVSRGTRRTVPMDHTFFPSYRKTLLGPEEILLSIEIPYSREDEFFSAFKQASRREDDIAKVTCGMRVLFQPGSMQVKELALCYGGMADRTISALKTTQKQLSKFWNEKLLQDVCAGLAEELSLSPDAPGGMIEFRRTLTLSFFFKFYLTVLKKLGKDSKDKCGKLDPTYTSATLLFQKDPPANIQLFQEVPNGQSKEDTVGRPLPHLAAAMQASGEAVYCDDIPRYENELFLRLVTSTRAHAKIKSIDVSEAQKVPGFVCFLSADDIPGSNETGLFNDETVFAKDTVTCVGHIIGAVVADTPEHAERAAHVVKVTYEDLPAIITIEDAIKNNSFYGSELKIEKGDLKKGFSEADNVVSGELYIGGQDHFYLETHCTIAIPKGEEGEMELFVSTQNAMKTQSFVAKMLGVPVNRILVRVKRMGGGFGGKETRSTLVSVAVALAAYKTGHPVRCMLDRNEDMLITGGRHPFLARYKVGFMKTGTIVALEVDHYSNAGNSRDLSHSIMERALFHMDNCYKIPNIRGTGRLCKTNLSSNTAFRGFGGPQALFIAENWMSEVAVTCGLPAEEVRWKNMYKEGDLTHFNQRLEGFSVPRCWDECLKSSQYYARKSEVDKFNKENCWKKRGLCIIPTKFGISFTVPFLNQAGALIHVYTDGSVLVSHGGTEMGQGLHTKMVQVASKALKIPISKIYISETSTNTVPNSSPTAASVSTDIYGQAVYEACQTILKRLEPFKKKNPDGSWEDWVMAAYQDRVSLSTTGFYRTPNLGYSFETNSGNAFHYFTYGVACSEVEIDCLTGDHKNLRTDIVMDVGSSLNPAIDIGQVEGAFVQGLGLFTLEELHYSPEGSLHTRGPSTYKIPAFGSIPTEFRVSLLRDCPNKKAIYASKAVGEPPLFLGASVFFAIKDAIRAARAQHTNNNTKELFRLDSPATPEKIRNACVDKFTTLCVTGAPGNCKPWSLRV
Experimental: One enzyme unit is defined as amount of enzyme required to produce 1 μM uric acid per min per ml reaction mixture from 10 μM of xanthine at 30°C, pH 7.4.
The IC50 values were determined for all the purine and pyrazolopyrimidine-based compounds. […] GRAFIT software procured from Erithacus Software Limited, UK, written by Dr R.J. Leatherbarrow, was employed for calculating the IC50 values.

bovine XOD [2] = biological target: T1, bovine XOD; experiment: Steady-state kinetics of XOD (Michaelis Menten and Lineweaver Burk plots); assay type: biochemical
Experimental: The double reciprocal Lineweaver Burk (LB) plots were drawn to find the mechanism of inhibition of XOD by APT and AHMP (Figure 6, 7, 8, 9).
(§1) Percent residual activity of formation of uric acid and 6TUA was determined by subtracting the percentage inhibition from 100%. […] Km and kcat were determined in the absence of the inhibitors.
For competitive inhibition,
-1/Km app = -1/Km (1+ [I]/Ki)
For non-competitive inhibition,
1/Vmax app = (1+ [I]/Ki)/Vmax
The modified LB equation for the mixed inhibition is
1/v = 1/Vmax app + […]/Vmax app [S]0
where, Km app and Vmax app are defined by equations (4) and (5).
Km app = Km {1+([I0]/Ki)}/{1+ ([I0]/KI)}
Vmax app = Vmax/{1+ ([I0]/KI)}
Km app is the apparent Michaelis constant and Vmax app is the apparent maximum velocity of the reaction of XOD with its substrates. Ki and KI are the inhibition constants of the inhibitors.

XOD [3] = biological target: T2, XOD (Bos taurus, UniProt P80457); experiment: In vitro tri-substrate (hypoxanthine, xanthine, 6MP) simulative study; assay type: biochemical; design: Bovine milk XOD was procured from Calbiochem (La Jolla, CA, USA); purchased Calbiochem (La Jolla, CA, USA); host or cells: bovine milk; settings: xanthine and 6MP together, data not shown
T2 sequence (P80457 whole entry): as above

bovine XOD [4] = biological target: T1, bovine XOD; experiment: In vitro bi-substrate (xanthine + 6MP) simulative experiment, percent residual XOD activity; assay type: biochemical; settings: for Inhibition of 6MP hydroxylation, bi-substrate reaction / Inhibition of xanthine hydroxylation, bi-substrate reaction: observed for 20 min
Experimental: Percent residual activity for generation of uric acid and 6TUA was determined in the presence of various concentrations of AHMP, APT and allopurinol (Table 2). […] Absorption spectra of the time dependent XOD-mediated bi-substrate reaction in the presence of APT and AHMP are depicted in Figure 4 and Figure 5, respectively.
as §1

XOD [5] = biological target: T2, XOD; design: Bovine milk XOD was procured from Calbiochem (La Jolla, CA, USA); purchased Calbiochem (La Jolla, CA, USA); host or cells: bovine milk; settings: cited from earlier work
[6] = design: method as in doi:10.1016/0006-2952(63)90012-1, doi:10.1016/0002-9343(66)90118-5, PMID 14070377; settings: combination with 6MP; cited from earlier work
XOD [7] = biological target: T2, XOD
XOD and XDH = system: XOD and XDH; design: method as in doi:10.1016/0006-2952(63)90012-1; settings: at doses that produced significant toxic effects; cited from earlier work
[8] = single dose 2.5, 5, 10 mg/kg intravenously, mice
[9] = single dose 2.5, 5, 10 mg/kg intravenously, mice, fourteen days
[10] = 10 μM hypoxanthine, 0.2 M sodium phosphate buffer pH 7.4, read-out: IC50, XOD inhibition, substrate hypoxanthine
[11] = 10 μM xanthine, pH 7.4, read-out: IC50, XOD inhibition, substrate xanthine (xanthine to uric acid)
[12] = IC50, XOD inhibition, substrate 6MP (6MP to 6TUA), 10 μM 6MP, pH 7.4, 60 min reaction
[13] = substrate 6MP, read-out: Ki (competitive inhibition constant; Ki^1 for APT, Ki^2 for AHMP)
[14] = substrate xanthine, read-out: Ki (competitive inhibition constant; Ki^1 for APT, Ki^2 for AHMP)
[15] = read-out: % Activity with 6MP as substrate
[16] = read-out: % Activity with xanthine as substrate
[17] = read-out: % Activity with xanthine as substrate (converted)

SMILES: Nc1nc2[nH]c(S)nc2c(=O)[nH]1 [AHMP, 2-amino-6-hydroxy-8-mercaptopurine]
Gross necropsy (swiss male mice; after termination of the study): no changes in vital organs
Organ weight as compared with the control groups (swiss male mice; after termination of the study): No difference in organ weight
Food intake as compared to allopurinol treated groups (swiss male mice; [8]): marginally less
Weekly food intake as compared to vehicle treated groups (swiss male mice; [8]): decreased
Changes in the initial and final body weight (swiss male mice; [9]): No significant changes
General behavioral toxicity (swiss male mice; [9]): No differences in general behavioral toxicity
Difference in the IC50 value in the first and the late phases (bovine XOD [1]): no such difference
Whether the compound is an XOD substrate (bovine XOD [1]): none were found to be XOD substrates
IC50 (bovine XOD [1]; [10]): 5.08 ± 0.04 µM
IC50 (bovine XOD [1]; [11]): 17.7 ± 0.29 µM
IC50 (bovine XOD [1]; [12]): 0.54 ± 0.01 µM
Mechanism of inhibition (bovine XOD [2]; substrate 6MP): mixed inhibition mechanism
Ki (bovine XOD [2]; substrate 6MP, read-out: KI^2 (non-competitive inhibition constant) (converted)): 0.98 µM
Ki (bovine XOD [2]; [13]): 0.96 ± 0.01 µM
Mechanism of inhibition (bovine XOD [2]; substrate xanthine): mixed type of inhibition
Ki (bovine XOD [2]; substrate xanthine, read-out: KI^2 (non-competitive inhibition constant) (converted)): 6.24 µM
Ki (bovine XOD [2]; [14]): 5.78 ± 0.48 µM
Discriminatory inhibition in tri-substrate simulative study (XOD [3]): discriminatory inhibition of the 6MP to 6TUA conversion and not hypoxanthine to uric acid conversion
Inhibition of 6MP hydroxylation, bi-substrate reaction (bovine XOD [4]; inhibitor 2 μM): Almost complete inhibition
Inhibition of xanthine hydroxylation, bi-substrate reaction (bovine XOD [4]; inhibitor 2 μM): little inhibition
activity at 0.5 µM (bovine XOD [4]; [15]): 59 ± 4.01%
activity at 1 µM (bovine XOD [4]; [15]): 47%
activity at 2.5 µM (bovine XOD [4]; [15]): 18%
activity at 0.5 µM (bovine XOD [4]; [16]): 90 ± 1.09%
activity at 1 µM (bovine XOD [4]; [17]): 85%
activity at 2.5 µM (bovine XOD [4]; [17]): 64%

SMILES: COc1cc(-c2cnn3c(=O)nc[n-]c23)ccc1[S+]([O-])c1ccccc1.[Na+] (stereo not drawn) [BOF-4272]
Type of XOD inhibition (XOD [5]): mixed type of inhibition

SMILES: O=c1[nH]c(=O)c2nc[nH]c2[nH]1 [Xanthine, xanthine]
Vmax (maximum reaction velocity) (bovine XOD [2]): 114.54 ± 0.24 µM/min

SMILES: O=c1c(O)c(-c2ccc(O)cc2O)oc2cc(O)cc(O)c12 [Morin]
Type of XOD inhibition (XOD [5]): mixed type of inhibition

SMILES: Oc1ncnc2[nH]ncc12 [ALLOPURINOL, allopurinol]
Gross necropsy (swiss male mice; mouse, in vivo): no changes in vital organs
Organ weight as compared with the control groups (swiss male mice; mouse, in vivo): No difference in organ weight
Mortality (swiss male mice; [9]): no mortality
Potentiation of the antitumor and immunosuppressive properties of 6MP [6]: three to four
activity at 0.5 µM (bovine XOD [4]; [15]): 83 ± 1.05%
activity at 1 µM (bovine XOD [4]; [15]): 48%
activity at 2.5 µM (bovine XOD [4]; [15]): 16%
activity at 0.5 µM (bovine XOD [4]; [16]): 95 ± 1.09%
activity at 1 µM (bovine XOD [4]; [16]): 68%
activity at 2.5 µM (bovine XOD [4]; [16]): 30%
Substrate-induced enzymatic electron transfer / ROS generation on interaction with XOD (XOD [7]): led to substrate-induced enzymatic electron transfer via DCPIP

SMILES: O=c1c(O)c(-c2ccccc2)oc2cc(O)cc(O)c12 [Galagin]
Type of XOD inhibition (XOD [5]): mixed type of inhibition

Vmax (maximum reaction velocity) (bovine XOD [2]): 2.85 ± 0.02 µM/min
SMILES: Sc1ncnc2nc[nH]c12 [6MP, 6-mercaptopurine]

SMILES: O=C(Nc1ncnc2nc[nH]c12)c1ccccc1 [6-(N-benzoylamino)purine]
Preferential inhibition of the 6MP hydroxylation over xanthine (bovine XOD [1]): did not exhibit any preferential inhibition

IC50 (bovine XOD [1]; [10]): 6.79 ± 0.28 µM
IC50 (bovine XOD [1]; [11]): 20.8 ± 0.84 µM
IC50 (bovine XOD [1]; read-out: IC50, XOD inhibition, substrate 6MP (6MP to 6TUA), 10 μM 6MP, pH 7.4, 60 min reaction): 12.9 ± 0.69 µM
SMILES: Nc1ncnc2[nH]ncc12 [APP, 4-aminopyrazolo 3,4-d pyrimidine]
Preferential inhibition of the 6MP hydroxylation over xanthine (bovine XOD [1]): did not exhibit any preferential inhibition

SMILES: NNC(N)=O [semicarbazide]
Inhibition of XOD and XDH in vivo (XOD and XDH): less than 50%

SMILES: Nc1nc2nc[nH]c2c(=S)[nH]1 [APT, 2-amino-6-purinethiol]
Gross necropsy (swiss male mice; mouse, in vivo): no changes in vital organs
Organ weight as compared with the control groups (swiss male mice; mouse, in vivo): No difference in organ weight
Mortality (swiss male mice; [9]): no mortality
Difference in the IC50 value in the first and the late phases (bovine XOD [1]): no such difference
Whether the compound is an XOD substrate (bovine XOD [1]): none were found to be XOD substrates
IC50 (bovine XOD [1]; [10]): 7.28 ± 0.17 µM
IC50 (bovine XOD [1]; [11]): 16.4 ± 0.21 µM
IC50 (bovine XOD [1]; [12]): 2.57 ± 0.08 µM
Mechanism of inhibition (bovine XOD [2]; substrate 6MP): competitive inhibition mechanism
Ki (bovine XOD [2]; [13]): 1.3 ± 0.09 µM
Mechanism of inhibition (bovine XOD [2]; substrate xanthine): Competitive
Ki (bovine XOD [2]; [14]): 6.61 ± 0.28 µM
Discriminatory inhibition in tri-substrate simulative study (XOD [3]): discriminatory inhibition of the 6MP to 6TUA conversion and not hypoxanthine to uric acid conversion
Inhibition of 6MP hydroxylation, bi-substrate reaction (bovine XOD [4]; inhibitor 5 μM): Almost complete inhibition
Inhibition of xanthine hydroxylation, bi-substrate reaction (bovine XOD [4]; inhibitor 5 μM): little inhibition
activity at 0.5 µM (bovine XOD [4]; [15]): 73 ± 2.5%
activity at 1 µM (bovine XOD [4]; [15]): 66%
activity at 2.5 µM (bovine XOD [4]; [15]): 25%
activity at 0.5 µM (bovine XOD [4]; [16]): 96 ± 1%
activity at 1 µM (bovine XOD [4]; [17]): 90%
activity at 2.5 µM (bovine XOD [4]; [17]): 80%
